Publication PMC3288262 (Bioorganic & medicinal chemistry letters, 2012)
“And” between values parts separate entries of the source, which are not always exact repeats. Equal entries are not always repeated. Marks after values point to notes of the source that are not given here. Starred links: 1 amine or outer side, 2 acyl side, 3 side chain; linkers in the order of their positions; H or OH if unused. Non-standard residues stand in square brackets, D forms with d. Residues, ends and D or L forms follow the SMILES beside them. Bcp = 4'-[N-((4'-phenyl)phenethyl)carboxamido]phenylalanine, O=C(NCCc1ccc(-c2ccccc2)cc1)c1ccc(C[C@H](N[*:1])C(=O)[*:2])cc1; Tic = O=C(O)[C@@H]1Cc2ccccc2CN1

Tests used:
μ opioid receptors = μ opioid receptors (Rattus norvegicus, UniProt P33535); conditions: read-out: Ki^μ; [3H]DAMGO displacement, rat brain membranes; ref [10]; cited from earlier work
δ opioid receptors = δ opioid receptors (Rattus norvegicus, UniProt P33533); conditions: ref [10], cited from earlier work
[1] = target: δ opioid receptor (mouse vas deferens, δ receptor-representative) (Mus musculus, UniProt P32300); conditions: read-out: MVD IC50; agonist potency; ref [10]; cited from earlier work
human δ opioid receptor = human δ opioid receptor (Homo sapiens, UniProt P41143); type: biochemical; conditions: mean of 3–6 determinations ± SEM; for [35S]GTPγS binding ED50: HEK293 cells, human δ opioid receptor
[2] = test system: μ opioid receptor (guinea pig ileum); conditions: partial agonist, IC40 given in IC50 column; ref [10]; cited from earlier work
[3] = test system: μ opioid receptor (guinea pig ileum); test: guinea pig ileum; conditions: read-out: GPI IC50; agonist potency; P.A. = partial agonist

human δ opioid receptor, sequence (P41143 whole entry): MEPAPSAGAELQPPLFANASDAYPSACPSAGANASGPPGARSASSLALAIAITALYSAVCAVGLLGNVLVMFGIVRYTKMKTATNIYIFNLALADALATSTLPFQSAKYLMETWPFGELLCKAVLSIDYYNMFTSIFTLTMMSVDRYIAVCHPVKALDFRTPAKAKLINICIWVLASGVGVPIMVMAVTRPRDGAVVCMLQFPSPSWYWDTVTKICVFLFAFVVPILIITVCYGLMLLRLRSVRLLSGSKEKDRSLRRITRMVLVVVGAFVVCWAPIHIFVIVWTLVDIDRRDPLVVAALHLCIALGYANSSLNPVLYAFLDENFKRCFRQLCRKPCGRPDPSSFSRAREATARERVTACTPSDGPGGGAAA
δ opioid receptors, sequence (P33533 whole entry): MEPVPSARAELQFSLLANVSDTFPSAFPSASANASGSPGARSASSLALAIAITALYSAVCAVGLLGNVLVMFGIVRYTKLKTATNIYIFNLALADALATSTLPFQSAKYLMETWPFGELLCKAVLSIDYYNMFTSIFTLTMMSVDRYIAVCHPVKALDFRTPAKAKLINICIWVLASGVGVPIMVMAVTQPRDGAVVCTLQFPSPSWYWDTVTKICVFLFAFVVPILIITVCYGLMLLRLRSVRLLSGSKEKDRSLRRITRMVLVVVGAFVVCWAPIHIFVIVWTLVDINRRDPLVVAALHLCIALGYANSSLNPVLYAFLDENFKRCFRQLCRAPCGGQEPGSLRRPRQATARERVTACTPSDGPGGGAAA
δ opioid receptor (mouse vas deferens, δ receptor-representative), sequence (P32300 whole entry): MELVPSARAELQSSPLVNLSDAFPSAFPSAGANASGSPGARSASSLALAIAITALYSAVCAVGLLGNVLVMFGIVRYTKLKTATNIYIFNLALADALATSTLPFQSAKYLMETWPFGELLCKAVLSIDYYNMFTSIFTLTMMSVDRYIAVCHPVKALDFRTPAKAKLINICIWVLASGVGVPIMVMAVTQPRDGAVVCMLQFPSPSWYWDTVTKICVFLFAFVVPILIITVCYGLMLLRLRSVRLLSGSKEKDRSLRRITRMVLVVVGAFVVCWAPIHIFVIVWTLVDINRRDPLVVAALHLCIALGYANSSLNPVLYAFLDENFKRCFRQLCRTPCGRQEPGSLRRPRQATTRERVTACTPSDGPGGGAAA
μ opioid receptors, sequence (P33535 whole entry): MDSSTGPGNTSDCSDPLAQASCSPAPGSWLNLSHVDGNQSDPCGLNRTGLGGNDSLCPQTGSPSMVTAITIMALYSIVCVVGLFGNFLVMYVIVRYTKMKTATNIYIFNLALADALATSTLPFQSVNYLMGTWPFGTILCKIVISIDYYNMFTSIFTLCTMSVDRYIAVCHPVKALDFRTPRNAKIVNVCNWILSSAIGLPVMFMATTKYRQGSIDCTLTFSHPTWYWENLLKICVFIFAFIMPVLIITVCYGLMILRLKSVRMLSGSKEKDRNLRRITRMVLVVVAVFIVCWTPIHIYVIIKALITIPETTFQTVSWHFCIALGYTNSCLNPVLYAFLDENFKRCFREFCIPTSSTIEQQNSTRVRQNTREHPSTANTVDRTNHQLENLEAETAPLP

| Molecule | Ki (μ opioid receptors) [nM] | Ki (δ opioid receptors; read-out: Ki^δ, [3H]DSLET displacement, rat brain membranes) [nM] | IC50 [1] [nM] | [35S]GTPγS binding ED50 (human δ opioid receptor) | [35S]GTPγS binding efficacy e (human δ opioid receptor; efficacy relative to DPDPE (e = 1.0)) | GPI IC40 [2] | Ki^μ/Ki^δ (δ opioid receptors; δ vs. μ receptor binding selectivity) | IC50 [3] [nM] |
| --- | --- | --- | --- | --- | --- | --- | --- | --- |
| H-Bcp-Tic-Phe-Phe-OH (H-[Bcp][Tic]FF-OH) [Compound 13] | 87.7 ± 8 | 0.605 ± 0.058 | 3.42 ± 0.36 |  |  |  |  |  |
| H-Bcp-Tic-Phe-Phe-OH [Compound 13] |  |  |  | 0.413 ± 0.015 nM | 0.678 and 0.678 ± 0.076 | 223 ± 37 (IC40) ^d nM | 145 |  |
| N[C@@H](Cc1ccc(O)cc1)C(=O)N1Cc2ccccc2C[C@H]1C(=O)N[C@@H](Cc1ccccc1)C(=O)N[C@@H](Cc1ccccc1)C(=O)O [TIPP, H-Tyr-Tic-Phe-Phe-OH, reference compound] (H-Y[Tic]FF-OH) |  |  |  | antagonist |  |  |  | > 10000 |
